Test results taken from BigSolDB 2.1.

N[C@@H](CC(=O)N1CCn2c(nnc2C(F)(F)F)C1)Cc1cc(F)c(F)cc1F
Settings	solubility (mole fraction)
in THF, 278.15 K	0.0212
in THF, 283.15 K	0.0274
in THF, 288.15 K	0.0322
in THF, 293.15 K	0.0363
in THF, 298.15 K	0.0463
in THF, 303.15 K	0.0554
in THF, 308.15 K	0.0625
in THF, 313.15 K	0.0756
in THF, 318.15 K	0.0933
in THF, 323.25 K	0.114
in acetonitrile, 278.15 K	0.0265
in acetonitrile, 283.15 K	0.0354
in acetonitrile, 288.15 K	0.0432
in acetonitrile, 293.15 K	0.0536
in acetonitrile, 298.15 K	0.0576
in acetonitrile, 303.15 K	0.0681
in acetonitrile, 308.15 K	0.0888
in acetonitrile, 313.15 K	0.105
in acetonitrile, 318.15 K	0.128
in acetonitrile, 323.15 K	0.156
in ethanol, 273.15 K	0.00768
in ethanol, 278.15 K	0.0108
in ethanol, 283.15 K	0.0138
in ethanol, 288.15 K	0.0179
in ethanol, 293.15 K	0.0233
in ethanol, 298.15 K	0.0298
in ethanol, 303.15 K	0.0363
in ethanol, 308.15 K	0.0451
in ethanol, 313.15 K	0.0606
in ethanol, 318.15 K	0.078
in ethyl acetate, 278.15 K	0.00986
in ethyl acetate, 283.15 K	0.0117
in ethyl acetate, 288.15 K	0.014
in ethyl acetate, 293.15 K	0.0167
in ethyl acetate, 298.15 K	0.02
in ethyl acetate, 303.15 K	0.0242
in ethyl acetate, 308.15 K	0.0286
in ethyl acetate, 313.15 K	0.0353
in ethyl acetate, 318.15 K	0.0435
in ethyl acetate, 323.15 K	0.0565
in isobutanol, 278.15 K	0.0101
in isobutanol, 283.15 K	0.0123
in isobutanol, 288.15 K	0.014
in isobutanol, 293.15 K	0.0158
in isobutanol, 298.15 K	0.0191
in isobutanol, 303.15 K	0.0216
in isobutanol, 308.15 K	0.0255
in isobutanol, 313.15 K	0.0301
in isobutanol, 318.15 K	0.0334
in isobutanol, 323.15 K	0.0379
in isopentanol, 278.15 K	0.00453
in isopentanol, 283.15 K	0.0054
in isopentanol, 288.15 K	0.00647
in isopentanol, 293.15 K	0.00801
in isopentanol, 298.15 K	0.0104
in isopentanol, 303.15 K	0.0123
in isopentanol, 308.15 K	0.0154
in isopentanol, 313.15 K	0.0184
in isopentanol, 318.15 K	0.0232
in isopentanol, 323.15 K	0.0316
in isopropanol, 273.15 K	0.00439
in isopropanol, 278.15 K	0.00482
in isopropanol, 283.15 K	0.00579
in isopropanol, 288.15 K	0.00703
in isopropanol, 293.15 K	0.00857
in isopropanol, 298.15 K	0.0103
in isopropanol, 303.15 K	0.0122
in isopropanol, 308.15 K	0.0139
in isopropanol, 313.15 K	0.0162
in isopropanol, 318.15 K	0.0188
in methyl acetate, 278.15 K	0.0397
in methyl acetate, 283.15 K	0.05
in methyl acetate, 288.15 K	0.0545
in methyl acetate, 293.15 K	0.063
in methyl acetate, 298.15 K	0.0728
in methyl acetate, 303.15 K	0.0835
in methyl acetate, 308.15 K	0.0954
in methyl acetate, 313.15 K	0.111
in methyl acetate, 318.15 K	0.126
in methyl acetate, 323.15 K	0.139
in n-butanol, 278.15 K	0.0105
in n-butanol, 283.15 K	0.0129
in n-butanol, 288.15 K	0.0141
in n-butanol, 293.15 K	0.0177
in n-butanol, 298.15 K	0.0208
in n-butanol, 303.15 K	0.0243
in n-butanol, 308.15 K	0.0262
in n-butanol, 313.15 K	0.0328
in n-butanol, 318.15 K	0.0382
in n-butanol, 323.15 K	0.0452
in n-propanol, 278.15 K	0.00795
in n-propanol, 283.15 K	0.011
in n-propanol, 288.15 K	0.0123
in n-propanol, 293.15 K	0.0183
in n-propanol, 298.15 K	0.022
in n-propanol, 303.15 K	0.0278
in n-propanol, 308.15 K	0.0387
in n-propanol, 313.1 K	0.0433
in n-propanol, 318.15 K	0.0572
in n-propanol, 323.15 K	0.0804
in sec-butanol, 278.15 K	0.00274
in sec-butanol, 283.15 K	0.00346
in sec-butanol, 288.15 K	0.0047
in sec-butanol, 293.15 K	0.00513
in sec-butanol, 298.15 K	0.00739
in sec-butanol, 303.15 K	0.00958
in sec-butanol, 308.15 K	0.0115
in sec-butanol, 313.15 K	0.0142
in sec-butanol, 318.15 K	0.0194
in sec-butanol, 323.15 K	0.0224
in water, 278.15 K	0.000281
in water, 283.15 K	0.000319
in water, 288.15 K	0.000349
in water, 293.15 K	0.000376
in water, 298.15 K	0.00042
in water, 303.15 K	0.000458
in water, 308.15 K	0.000499
in water, 313.15 K	0.000542
in water, 318.15 K	0.000574
in water, 323.15 K	0.000633
